Measurements reported in US5599793A, “Antithromobotic agents” (Eli Lilly and Company, priority 1995, dated 1997).

What was measured:
t-PA = target: T1, t-PA (Homo sapiens, UniProt P00750); assay: Serine protease selectivity, chromogenic substrate (Kass), t-PA; assay type: biochemical; details: substrate H-D-Ile-Pro-Arg-p-nitroanilide
T1 construct: purchased American Diagnostica, Greenwich, Conn
Description: (§1) The assay is carried out by mixing 50 μL buffer (0.03M Tris, 0.15M NaCl, pH 7.4) with 25 μL of bovine thrombin or human thrombin solution (0.21 mg/mL of thrombostat bovine thrombin, Parke-Davis, or purified human thrombin, Enzyme Research Laboratories, South Bend, Ind., at about 8 NIH units/mL, in the same buffer) and 25 μL of test compound in a solvent (in 50% aqueous methanol, v:v). The 150 μL of an aqueous solution of the chromogenic substrate (at 0.25 mg/mL) are added and the rates of hydrolysis of the substrate are measured by monitoring the reactions at 405 nm for the release of p-nitroaniline. Standard curves are constructed by plotting free thrombin concentration against hydrolysis rate. The hydrolysis rates observed with test compounds are then converted to "free thrombin" values in the respective assays by use of the standard curves. The bound thrombin (bound to test compound) is calculated by subtracting the amount of free thrombin observed in each assay from the known initial amount of thrombin used in the assay. The amount of free inhibitor in each assay is calculated by subtracting the number of moles of bound thrombin from the number of moles of added inhibitor (test compound).
(§2) Kass is calculated for a range of concentrations of test compounds and the mean value is reported in units of liter per mole.
(§3) By substantially following the procedures described above for human thrombin, and using other human blood coagulation system serine proteases and proteases of the fibrinolytic system with the appropriate chromogenic substrates, identified below, selectivity of the compounds of the present invention with respect to the coagulation factor serine proteases and with respect to the fibrinolytic system serine proteases are evaluated as well as their substantial lack of interference with serine proteases of the fibrinolytic system. Thrombin inhibitors preferably should spare fibrinolysis induced by urokinase, tissue plasminogen activator (t-PA) and streptokinase. This would be important to the therapeutic use of such agents as an adjunct to streptokinase, t-PA or urokinase thrombolytic therapy and to the use of such agents as an endogenous fibrinolysis-sparing (with respect to t-PA and urokinase) antithrombotic agent. In addition to the lack of interference with the amidase activity of the fibrinolytic proteases, such fibrinolytic system sparing can be studied by the use of human plasma clots and their lysis by the respective fibrinolytic plasminogen activators.
(§4) Human plasmin is purchased from Boehringer Mannheim, Indianapolis, Ind.; nt-PA is purchased as single chain activity reference from American Diagnostica, Greenwich, Conn.; modified-t-PA6 (mt-PA6) is prepared at Eli Lilly and Company by procedure known in the art (See, Burck, et al., J. Biol. Chem., 265, […] (1990). Plasmin chromogenic substrate H-D-Val-Leu-Lys-p-nitroanilide and tissue plasminogen activator (t-PA) substrate H-D-Ile-Pro-Arg-p-nitroanilide are purchased from Kabi Vitrum, Stockholm, Sweden.

factor Xa = target: T2, factor Xa (Homo sapiens, UniProt P00742); assay: Serine protease selectivity, chromogenic substrate (Kass), factor Xa; assay type: biochemical; details: substrate N-Benzoyl-Ile-Glu-Gly-Arg-p-nitroanilide
T2 construct: Human factors X, Xa, IXa, XIa, and XIIa are purchased; purchased Enzyme Research Laboratories, South Bend, Ind
T2 sequence (P00742 235-488 limits assumed): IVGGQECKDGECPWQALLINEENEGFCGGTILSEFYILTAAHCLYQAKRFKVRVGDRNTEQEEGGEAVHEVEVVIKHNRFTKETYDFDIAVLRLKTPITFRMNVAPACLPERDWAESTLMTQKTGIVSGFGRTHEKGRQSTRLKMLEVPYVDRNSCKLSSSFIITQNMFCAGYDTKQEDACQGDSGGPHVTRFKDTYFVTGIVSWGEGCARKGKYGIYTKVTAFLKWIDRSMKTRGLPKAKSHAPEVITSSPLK
T2 sequence (P00742 41-179 partner limits assumed): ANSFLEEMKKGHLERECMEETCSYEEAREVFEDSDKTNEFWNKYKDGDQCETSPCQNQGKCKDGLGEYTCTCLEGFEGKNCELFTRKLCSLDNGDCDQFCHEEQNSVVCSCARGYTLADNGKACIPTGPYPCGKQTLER
Description: as §1, §2, §3
(§5) Human factors X, Xa, IXa, XIa, and XIIa are purchased from Enzyme Research Laboratories, South Bend, Ind.; human urokinase from Leo Pharmaceuticals, Denmark; and recombinant activated Protein C (aPC) is prepared at Eli Lilly and Co. substantially according to U.S. Pat. No. 4,981,952. Chromogenic substrates: N-Benzoyl-Ile-Glu-Gly-Arg-p-nitroanilide (for factor Xa); N-Cbz-D-Arg-Gly-Arg-p-nitroanilide (for factor IXa assay as the factor Xa substrate); Pyroglutamyl-Pro-Arg-p-nitroanilide (for Factor XIa and for aPC); H-D-Pro-Phe-Arg-p-nitroanilide (for factor XIIa); and Pyroglutamyl-Gly-Arg-p-nitroanilide (for urokinase); are purchased from KabiVitrum, Stockholm, Sweden, or from Midwest Biotech, Fishers, Ind. Bovine trypsin is purchased from Worthington Biochemicals, Freehold, N.J., and human plasma kallikrein from Kabi Vitrum, Stockholm, Sweden. Chromogenic substrate H-D-Pro-Phe-Arg-p-nitroanilide for plasma kallikrein is purchased from Kabi Vitrum, Stockholm, Sweden. N-Benzoyl-Phe-Val-Arg-p-nitroanilide, the substrate for human thrombin and for trypsin, is synthesized according to procedures described above for the compounds of the present invention, using known methods of peptide coupling from commercially available reactants or purchased from Midwest Biotech, Fishers, Ind.

Human plasma [1] = assay: Human plasma anticoagulation, thrombin time (TT); assay type: biochemical; details: concentration required to double the thrombin time, linear extrapolation
Description: (§6) Dog plasma and rat plasma is obtained from conscious mixed-breed hounds (either sex, Hazelton-LRE, Kalamazoo, Mich., U.S.A.) or from anesthetized male Sprague-Dawley rats (Harlan Sprague-Dawley, Inc., Indianapolis, Ind., U.S.A.) by venipuncture into 3.8 percent citrate. Fibrinogen is prepared from in-date ACD human blood as the fraction I-2 according to previous procedures and specifications. Smith, Biochem. J., 185, 1-11 (1980); and Smith, et al., Biochemistry, 11, 2958-2967 (1972). Human fibrinogen is also purchased as 98 percent pure/plasmin free from American Diagnostica, Greenwich, Conn. Coagulation reagents ACTIN, Thromboplastin, and Human plasma are from Baxter Healthcare Corp., Dade Division, Miami, Fla. Bovine thrombin from Parke-Davis ([…], Mich.) is used for coagulation assays in plasma.
(§7) Coagulation assay procedures are as previously described. Smith, et al., Thrombosis Research, 50, 163-174 (1988). A CoAScreener coagulation instrument (American LABor, Inc.) is used for all coagulation assay measurements. The prothrombin time (PT) is measured by adding 0.05 mL saline and 0.05 mL Thromboplastin-C reagent to 0.05 mL test plasma. The activated partial thromboplastin time (APTT) is measured by incubation of 0.05 mL test plasma with 0.05 mL Actin reagent for 120 seconds followed by 0.05 mL CaCl2 (0.02M). The thrombin time (TT) is measured by adding 0.05 mL saline and 0.05 mL thrombin (10 NIH units/mL) to 0.05 mL test plasma. The compounds of formula I are added to human or animal plasma over a wide range of concentrations to determine prolongation effects on the APTT, PT, and TT assays. Linear extrapolations are performed to estimate the concentrations required to double the clotting time for each assay.

Human Thrombin = Human Thrombin (Homo sapiens, UniProt P00734); assay: Inhibition of amidase activity of thrombin (Kass); assay type: biochemical; details: apparent association constant, mean over a range of concentrations
Description: as §1
The Kass value is the hypothetical equilibrium constant for the reaction between thrombin and the test compound (I). [drawing 54]
as §2

Human plasma [2] = assay: Human plasma anticoagulation, activated partial thromboplastin time (APTT); assay type: biochemical; details: concentration required to double the APTT, linear extrapolation
Description: as §6, §7

Human plasma [3] = assay: Human plasma anticoagulation, prothrombin time (PT); assay type: biochemical; details: concentration required to double the PT, linear extrapolation
Description: as §6, §7

Trypsin = target: T3, Trypsin (Bos taurus, UniProt P00760); assay: Serine protease selectivity, chromogenic substrate (Kass), trypsin; assay type: biochemical, bovine; details: substrate N-Benzoyl-Phe-Val-Arg-p-nitroanilide
T3 construct: Bovine trypsin is purchased; purchased Worthington Biochemicals, Freehold, N.J
T3 sequence (P00760 24-246): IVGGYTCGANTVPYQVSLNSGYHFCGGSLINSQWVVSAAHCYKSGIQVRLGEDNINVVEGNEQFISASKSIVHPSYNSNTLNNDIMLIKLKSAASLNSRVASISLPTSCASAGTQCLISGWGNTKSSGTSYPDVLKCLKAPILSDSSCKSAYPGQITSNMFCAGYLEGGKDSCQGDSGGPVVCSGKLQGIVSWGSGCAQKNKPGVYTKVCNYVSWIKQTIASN
Description: as §1, §2, §3, §5

Plasmin = target: T4, Plasmin (Homo sapiens, UniProt P00747); assay: Serine protease selectivity, chromogenic substrate (Kass), plasmin; assay type: biochemical; details: substrate H-D-Val-Leu-Lys-p-nitroanilide
T4 construct: Human plasmin is purchased; purchased Boehringer Mannheim, Indianapolis, Ind
T4 sequence (P00747 581-810 limits assumed): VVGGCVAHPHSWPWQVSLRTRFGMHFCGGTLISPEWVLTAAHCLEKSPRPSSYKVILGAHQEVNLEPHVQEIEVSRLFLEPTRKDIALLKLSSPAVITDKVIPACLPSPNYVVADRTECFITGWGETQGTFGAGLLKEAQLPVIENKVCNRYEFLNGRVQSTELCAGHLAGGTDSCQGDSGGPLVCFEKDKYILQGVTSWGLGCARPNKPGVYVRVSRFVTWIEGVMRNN
T4 sequence (P00747 97-580 partner limits assumed): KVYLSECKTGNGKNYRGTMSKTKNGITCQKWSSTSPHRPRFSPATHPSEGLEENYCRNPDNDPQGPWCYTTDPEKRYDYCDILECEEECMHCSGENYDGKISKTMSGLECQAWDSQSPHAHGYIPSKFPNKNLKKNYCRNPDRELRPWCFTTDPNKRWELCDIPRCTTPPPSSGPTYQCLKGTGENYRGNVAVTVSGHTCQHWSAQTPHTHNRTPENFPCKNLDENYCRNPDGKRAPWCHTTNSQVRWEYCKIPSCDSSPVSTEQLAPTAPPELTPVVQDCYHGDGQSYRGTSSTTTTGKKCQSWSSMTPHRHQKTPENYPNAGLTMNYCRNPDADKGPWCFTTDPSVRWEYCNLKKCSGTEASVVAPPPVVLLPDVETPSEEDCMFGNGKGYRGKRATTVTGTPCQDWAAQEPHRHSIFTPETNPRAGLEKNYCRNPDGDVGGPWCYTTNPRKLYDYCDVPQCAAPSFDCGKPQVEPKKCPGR
Description: as §1, §2, §3, §4

T1 sequence (P00750 36-562): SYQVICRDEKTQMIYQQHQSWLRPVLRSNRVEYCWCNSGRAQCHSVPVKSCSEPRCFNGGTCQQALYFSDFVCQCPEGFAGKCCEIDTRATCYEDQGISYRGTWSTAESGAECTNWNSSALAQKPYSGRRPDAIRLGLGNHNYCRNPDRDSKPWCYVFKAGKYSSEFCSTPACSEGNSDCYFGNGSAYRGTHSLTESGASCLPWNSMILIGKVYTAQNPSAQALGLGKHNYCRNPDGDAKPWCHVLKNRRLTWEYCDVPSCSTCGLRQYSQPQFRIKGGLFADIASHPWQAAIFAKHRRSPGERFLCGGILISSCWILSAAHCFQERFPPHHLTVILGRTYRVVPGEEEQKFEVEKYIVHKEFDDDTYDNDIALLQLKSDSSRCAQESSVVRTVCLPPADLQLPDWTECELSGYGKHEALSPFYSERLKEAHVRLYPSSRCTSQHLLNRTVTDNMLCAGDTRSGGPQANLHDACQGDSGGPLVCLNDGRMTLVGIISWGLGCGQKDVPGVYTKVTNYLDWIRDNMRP

Enzyme Kass, t-PA (t-PA)	Enzyme Kass, Xa (factor Xa)	Enzyme Kass, Human Thrombin (Human Thrombin)	Enzyme Kass, Trypsin (Trypsin)	Enzyme Kass, Plasmin (Plasmin)	SMILES	2x Clotting time, TT (Human plasma [1])	2x Clotting time, APTT (Human plasma [2])	2x Clotting time, PT (Human plasma [3])
0.19 L/mol × 10^6	7.9 L/mol × 10^6	8.2 L/mol × 10^6	77 L/mol × 10^6	2.0 L/mol × 10^6	CC(C)CC[C@H]1C[C@@H](C(=O)N[C@H](C=O)CCCNC(=N)N)N(C(=O)[C@H]2CCCCN2)C1.Cl.Cl (relative stereo) [Example 4, D-homoprolyl-L-cis-4-isoamyl-prolyl-L-argininal dihydrochloride]	130 ng/mL	630 ng/mL	3,100 ng/mL
0.027 L/mol × 10^6	0.59 L/mol × 10^6	3.0 L/mol × 10^6	63 L/mol × 10^6	3.4 L/mol × 10^6	CC(=O)Nc1ccc(O[C@H]2C[C@@H](C(=O)N[C@H](C=O)CCCNC(=N)N)N(C(=O)[C@H]3CCCCN3)C2)cc1.Cl.Cl (relative stereo) [Example 10, D-hPro-Pro(4-cis-(4-AcNH-phenoxy))-ArgH.2 HCl]	480 ng/mL	2,200 ng/mL	10,000 ng/mL
0.015 L/mol × 10^6	1.2 L/mol × 10^6	6.1 L/mol × 10^6	56 L/mol × 10^6	1.1 L/mol × 10^6	CC(=O)Nc1cccc(O[C@H]2C[C@@H](C(=O)N[C@H](C=O)CCCNC(=N)N)N(C(=O)[C@H]3CCCCN3)C2)c1.Cl.Cl (relative stereo) [Example 12, D-hPro-Pro(4-cis-(3-AcNH-phenoxy))-ArgH.2 HCl]	210 ng/mL	1,300 ng/mL	4,100 ng/mL
0.033 L/mol × 10^6	0.58 L/mol × 10^6	2.1 L/mol × 10^6	22 L/mol × 10^6	0.65 L/mol × 10^6	Cl.Cl.N=C(N)NCCC[C@@H](C=O)NC(=O)[C@@H]1C[C@H](Oc2cccc(N)c2)CN1C(=O)[C@H]1CCCCN1 (relative stereo) [Example 13, D-hPro-Pro(4-cis-(3-NH2-phenoxy))-ArgH.2 HCl]	490 ng/mL	2,900 ng/mL	9,100 ng/mL
–	11.6 L/mol × 10^6	5.4 L/mol × 10^6	633 L/mol × 10^6	14.0 L/mol × 10^6	CC(C)CC[C@H]1C[C@@H](C(=O)N[C@H](C=O)CCCNC(=N)N)N(C(=O)[C@H]2CC3CCCCC3CN2)C1.Cl.Cl (relative stereo) [Example 27, D-3-cis-Piq-Pro(4-cis-isoamyl)-ArgH.2 HCl]	116 ng/mL	395 ng/mL	1,232 ng/mL
–	0.14 L/mol × 10^6	0.41 L/mol × 10^6	20.30 L/mol × 10^6	0.27 L/mol × 10^6	CC(C)CC[C@H]1C[C@@H](C(=O)N[C@H](C=O)CCCNC(=N)N)N(C(=O)C2NCCC3CCCCC32)C1.Cl.Cl (relative stereo) [Example 28, 1-Piq-Pro(4-cis-isoamyl)-ArgH.2 HCl]	3,637 ng/mL	22,727 ng/mL	43,401 ng/mL
–	0.67 L/mol × 10^6	82 L/mol × 10^6	1,040 L/mol × 10^6	12.4 L/mol × 10^6	Cl.Cl.N=C(N)NCCCC(C=O)NC(=O)C1CC2CCCCC2N1C(=O)C1CC2CCCCC2CN1 [Example 25, D-3-cis-Piq-cis-Ohi-ArgH.2 HCl]	25 ng/mL	548 ng/mL	1,232 ng/mL
–	2.53 L/mol × 10^6	15.6 L/mol × 10^6	718 L/mol × 10^6	11.3 L/mol × 10^6	Cl.Cl.NC(N)=NCCCC(C=O)NC(=O)C1CC(Oc2ccccc2)CN1C(=O)C1CC2CCCCC2CN1 [Example 26, D-3-cis-Piq-Pro(4-cis-phenoxy)-ArgH.2 HCl]	82 ng/mL	392 ng/mL	1,322 ng/mL

SMILES	Enzyme Kass, t-PA (t-PA)	Enzyme Kass, Xa (factor Xa)	Enzyme Kass, Human Thrombin (Human Thrombin)	Enzyme Kass, Trypsin (Trypsin)	Enzyme Kass, Plasmin (Plasmin)	2x Clotting time, TT (Human plasma [1])	2x Clotting time, APTT (Human plasma [2])	2x Clotting time, PT (Human plasma [3])
Cl.Cl.N=C(N)NCCC[C@@H](C=O)NC(=O)[C@@H]1C[C@H](c2ccccc2)CN1C(=O)[C@H]1CCCCN1 (relative stereo) [Example 6, D-hPro-Pro(4-cis-phenyl)-ArgH.2 HCl]	0.065 L/mol × 10^6	5.7 L/mol × 10^6	2.9 L/mol × 10^6	240 L/mol × 10^6	5.3 L/mol × 10^6	340 ng/mL	840 ng/mL	4,100 ng/mL
